Measured values: BindingDB's records for doi:10.1016/0167-0115(94)90537-1 (Universit&Eacute, 1994)
pKi: −log10 of the molar value. Square brackets hold non-standard residues; d marks the D form. Peptide text beside a SMILES is read from it. ξ: configuration not given here. Ile(3ξ) = CCC(C)[C@H](N)C(=O)O

Target: T1, VIP peptides (Rattus norvegicus, UniProt P01283)
T1 sequence (P01283 whole entry): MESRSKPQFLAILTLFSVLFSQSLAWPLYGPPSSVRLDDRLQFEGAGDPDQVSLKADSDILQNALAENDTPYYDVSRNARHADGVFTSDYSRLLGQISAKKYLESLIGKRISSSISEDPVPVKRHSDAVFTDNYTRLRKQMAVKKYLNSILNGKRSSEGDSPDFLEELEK

Row | Compound | pKi
1 | CC[C@H](C)[C@H](NC(=O)CNC(=O)[C@H](CCC(=O)O)NC(=O)[C@H](CO)NC(=O)[C@@H](N)Cc1cnc[nH]1)C(=O)N[C@@H](Cc1ccccc1)C(=O)N[C@H](C(=O)N[C@@H](CC(=O)O)C(=O)N[C@@H](CO)C(=O)N[C@@H](Cc1ccc(O)cc1)C(=O)N[C@@H](CO)C(=O)N[C@@H](CCCNC(=N)N)C(=O)N[C@@H](Cc1ccc(O)cc1)C(=O)N[C@@H](CCCNC(=N)N)C(=O)N[C@@H](CCCCN)C(=O)N[C@@H](CCC(N)=O)C(=O)N[C@@H](CCSC)C(=O)N[C@@H](C)C(=O)N[C@H](C(=O)N[C@@H](CCCCN)C(=O)N[C@@H](CCCCN)C(=O)N[C@@H](Cc1ccc(O)cc1)C(=O)N[C@@H](CC(C)C)C(=O)N[C@@H](C)C(=O)N[C@@H](C)C(=O)N[C@H](C(=O)N[C@@H](CC(C)C)C(N)=O)C(C)C)C(C)C)[C@@H](C)O [PACAP(1-27)] | 8.70
2 | CC[C@H](C)[C@H](NC(=O)[C@H](C)NC(=O)[C@H](CC(=O)O)NC(=O)[C@H](CO)NC(=O)[C@@H](N)Cc1cnc[nH]1)C(=O)N[C@@H](Cc1ccccc1)C(=O)N[C@H](C(=O)N[C@@H](CCC(N)=O)C(=O)N[C@@H](CCC(N)=O)C(=O)N[C@@H](Cc1ccc(O)cc1)C(=O)N[C@@H](CO)C(=O)N[C@@H](CCCCN)C(=O)N[C@@H](CC(C)C)C(=O)N[C@@H](CC(C)C)C(=O)N[C@@H](C)C(=O)N[C@@H](CCCCN)C(=O)N[C@@H](CC(C)C)C(=O)N[C@@H](C)C(=O)N[C@@H](CC(C)C)C(=O)N[C@@H](CCC(N)=O)C(=O)N[C@@H](CCCCN)C(=O)N[C@@H](Cc1ccc(O)cc1)C(=O)N[C@@H](CC(C)C)C(=O)N[C@@H](C)C(=O)N[C@@H](CO)C(=O)N[C@H](C(=O)N[C@@H](CC(C)C)C(=O)NCC(=O)N[C@@H](CO)C(=O)N[C@@H](CCCNC(=N)N)C(=O)N[C@H](C(=O)N[C@@H](CO)C(=O)N1CCC[C@H]1C(=O)N1CCC[C@H]1C(=O)N1CCC[C@H]1C(N)=O)[C@@H](C)O)[C@@H](C)CC)[C@@H](C)O [CAS_89468-62-2] (H-HSDAIFTQQYSKLLAKLALQKYLASILGSRTSPPP-NH2) | 7.52
3 | CCC(C)[C@H](NC(=O)CN)C(=O)N[C@@H](Cc1ccccc1)C(=O)N[C@H](C(=O)N[C@@H](CC(=O)O)C(=O)N[C@@H](CO)C(=O)N[C@@H](Cc1ccc(O)cc1)C(=O)N[C@@H](CO)C(=O)N[C@@H](CCCN=C(N)N)C(=O)N[C@@H](Cc1ccc(O)cc1)C(=O)N[C@@H](CCCN=C(N)N)C(=O)N[C@@H](CCCCN)C(=O)N[C@@H](CCC(N)=O)C(=O)N[C@@H](CCSC)C(=O)N[C@@H](C)C(=O)N[C@H](C(=O)N[C@@H](CCCCN)C(=O)N[C@@H](CCCCN)C(=O)N[C@@H](Cc1ccc(O)cc1)C(=O)N[C@@H](CC(C)C)C(=O)N[C@@H](C)C(=O)N[C@@H](C)C(=O)N[C@H](C(=O)N[C@@H](CC(C)C)C(N)=O)C(C)C)C(C)C)[C@@H](C)O (stereo not given in full) [PACAP(4-27)] (H-G[Ile(3ξ)]FTDSYSRYRKQMAVKKYLAAVL-NH2) | 6.10

Further compounds by rising pKi, results first:

Row | pKi | Compound
4 | 6.70 | CC[C@H](C)[C@H](NC(=O)[C@H](CO)NC(=O)[C@H](CC(N)=O)NC(=O)[C@H](CC(C)C)NC(=O)[C@H](Cc1ccc(O)cc1)NC(=O)[C@H](CCCCN)NC(=O)[C@H](CCCCN)NC(=O)[C@@H](NC(=O)[C@H](C)NC(=O)[C@H](CCSC)NC(=O)[C@H](CCC(N)=O)NC(=O)[C@H](CCCCN)NC(=O)[C@H](CCCN=C(N)N)NC(=O)[C@H](CC(C)C)NC(=O)[C@H](CCCN=C(N)N)NC(=O)[C@@H](NC(=O)[C@H](Cc1ccc(O)cc1)NC(=O)[C@H](CC(N)=O)NC(=O)[C@H](CC(=O)O)NC(=O)[C@@H](NC(=O)[C@H](Cc1ccccc1)NC(=O)[C@@H](NC(=O)[C@H](C)NC(=O)[C@H](CC(=O)O)NC(=O)[C@@H](N)CO)C(C)C)[C@@H](C)O)[C@@H](C)O)C(C)C)C(=O)N[C@@H](CC(C)C)C(=O)N[C@@H](CC(N)=O)C(N)=O [VIP(2-28)] (H-SDAVFTDNYTRLRKQMAVKKYLNSILN-NH2)
5 | 8.70 | CC[C@H](C)[C@H](NC(=O)CNC(=O)[C@H](CC(=O)O)NC(=O)[C@H](CO)NC(=O)[C@@H](N)Cc1cnc[nH]1)C(=O)N[C@@H](Cc1ccccc1)C(=O)N[C@H](C(=O)N[C@@H](CC(=O)O)C(=O)N[C@@H](CO)C(=O)N[C@@H](Cc1ccc(O)cc1)C(=O)N[C@@H](CO)C(=O)N[C@@H](CCCNC(=N)N)C(=O)N[C@@H](Cc1ccc(O)cc1)C(=O)N[C@@H](CCCNC(=N)N)C(=O)N[C@@H](CCCCN)C(=O)N[C@@H](CCC(N)=O)C(=O)N[C@@H](CCSC)C(=O)N[C@@H](C)C(=O)N[C@H](C(=O)N[C@@H](CCCCN)C(=O)N[C@@H](CCCCN)C(=O)N[C@@H](Cc1ccc(O)cc1)C(=O)N[C@@H](CC(C)C)C(=O)N[C@@H](C)C(=O)N[C@@H](C)C(=O)N[C@H](C(=O)N[C@@H](CC(C)C)C(=O)NCC(=O)N[C@@H](CCCCN)C(=O)N[C@@H](CCCNC(=N)N)C(=O)N[C@@H](Cc1ccc(O)cc1)C(=O)N[C@@H](CCCCN)C(=O)N[C@@H](CCC(N)=O)C(=O)N[C@@H](CCCNC(=N)N)C(=O)N[C@H](C(=O)N[C@@H](CCCCN)C(=O)N[C@@H](CC(N)=O)C(=O)N[C@@H](CCCCN)C(N)=O)C(C)C)C(C)C)C(C)C)[C@@H](C)O [PACAP]
